Results on 16 compounds are retold here after patent US5229369A, “Aminoalkylaminocarbonyl aminodiol amino acid derivatives as anti-hypertensive agents” (G. D. Searle & Co., priority 1991, dated 1993).

SMILES strings stand for the structures. Where a name gives a salt, the structure may show the parent alone. Where a SMILES comes first, the peptide text is derived from it. [ ]: non-standard residue; d: D form. The star is where a group is joined. Sta = CC(C)C[C@H](N)[C@@H](O)CC(=O)O; Isovaleryl = CC(C)CC(=O)*

One may read the IC50 as the concentration needed to halve the response being measured. High values mean a need for much substance, low ones inhibition by little substance.

One experiment concerns plasma renin. Kind of experiment: oral activity in vivo in sodium depleted Marmoset monkeys, plasma renin activity. The arrangement: species or system Common marmosets (Callithrix jacchus). To be noted: 1 h, 3 mg/kg dose. As for the experimental part:
The oral activity of compounds of Formula I was determined in vivo in Marmoset monkeys in accordance with the following procedure: Common marmosets (Callithrix jacchus, Charles River) were placed on a modified high protein low sodium diet (Purina, St. Louis, Mo,) for 1 to 2 weeks. On the day of the test an animal was anesthetized with isoflurane and cannulated in the femoral artery and vein for blood pressure monitoring, intravenous saralasin infusion and blood sampling. After allowing the animal to recover from surgery for 2 hr, saralasin was infused at 1 microgram/min for 15 minutes to confirm that the animal's blood pressure was dependent on angiotensin II levels. The marmoset was allowed to stabilize for 30 min after the saralasin infusion. The test compound was administered orally and blood pressure was monitored for 2 hr. Blood samples were taken in K-EDTA for plasma renin activity before, 30 min, and 1 hr after compound administration.

In the next experiment the target is T1, human renin (Homo sapiens, UniProt P00797).
T1 construct: purchased National Institute for Biological Standards, London
T1 sequence (P00797 67-406): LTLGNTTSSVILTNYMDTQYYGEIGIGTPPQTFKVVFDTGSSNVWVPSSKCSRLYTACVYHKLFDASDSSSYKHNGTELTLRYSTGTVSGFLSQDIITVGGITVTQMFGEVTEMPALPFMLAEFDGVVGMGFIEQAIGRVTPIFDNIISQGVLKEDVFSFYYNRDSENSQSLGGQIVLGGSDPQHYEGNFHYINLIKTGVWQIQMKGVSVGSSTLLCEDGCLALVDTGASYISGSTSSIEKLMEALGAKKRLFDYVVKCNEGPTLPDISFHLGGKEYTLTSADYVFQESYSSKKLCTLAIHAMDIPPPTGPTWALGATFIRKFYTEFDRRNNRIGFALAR
Description: human renin inhibition test in vitro (angiotensin I by radioimmunoassay). The class given is biochemical. Particulars: human plasma, pH 7.4, 37° C., two hours. As for the experimental part:
Compounds of Formula I were evaluated as inhibitors of human renin in an in vitro assay, as follows: This human renin inhibition test has been previously described in detail [Papaioannou et al., Clinical and Experimental Hypertension, A7(9), 1243-1257 (1985)]. Human renin was obtained from the National Institute for Biological Standards, London. An incubation mixture was prepared containing in a total volume of 0.25 mL 100 mM Tris-acetate buffer at pH 7.4, 25×10^-6 Goldblatt units of renin, 0.05 mL of plasma from human volunteers taking oral contraceptives, 6.0 mM sodium EDTA, 2.4 mM phenylmethyl sulfonyl fluoride, 1.5 mM 8-hydroxyquinoline, 0.4 mg/mL BSA, and 0.024 mg/mL neomycin sulfate. This mixture was incubated for two hours at 37° C. in the presence or absence of renin inhibitors. The produced angiotensin I was determined by radioimmunoassay (New England Nuclear kit). Test compounds to be assayed were solubilized in DMSO and diluted with 100 mM Tris-acetate buffer at pH 7.4 containing 0.5% bovine serum albumin (BSA) to the appropriate concentration. The final concentration of organic solvent in the reaction mixture was less than 1%. Control incubations at 37° C. were used to correct for effects of organic solvent on renin activity.

The next experiment has as its system hog renin. Particulars: after injection of hog renin into nephrectomized rats; Gross et al, Science, 175, 656 (1971); cited from earlier work.
The subject of experiment [1] is aspartyl proteases such as pepsin, cathepsin D and renin. Particulars: Umezawa et al, J. Antibiot. (Tokyo), 23, 259-262 (1970); cited from earlier work.

For `CC(C)C[C@H](O)[C@H](O)[C@H](CC1CCCCC1)NC(=O)[C@H](Cc1c[nH]cn1)NC(=O)[C@H](Cc1ccccc1)OC(=O)N(C)CCN(C)C` [Example 8, O-{N-[2-(N,N-dimethylamino)ethyl]-N-methylaminocarbonyl}-3-L-phenyllactyl-L-histidineamide of (2S,3R,4S)-2-amino-1-cyclohexyl-3,4-dihydroxy-6-methylheptane], the “% Reduction of Plasma Renin Activity” value with plasma renin was 100%. For the same compound, at human renin, the IC50 turned out to be 1 nM.

Take `CNCCN(C)C(=O)O[C@@H](Cc1ccccc1)C(=O)N[C@@H](Cc1c[nH]cn1)C(=O)N[C@@H](CC1CCCCC1)[C@@H](O)[C@@H](O)CC(C)C` [Example 10, O-{N-[2-(N-methylamino)ethyl]-N-methylaminocarbonyl}-3-L-phenyllactyl-L-histidineamide of (2S,3R,4S)-2-amino-1-cyclohexyl-3,4-dihydroxy-6-methylheptane]: the “% Reduction of Plasma Renin Activity” value in the experiment with plasma renin is recorded as 100%. Further, inhibition against human renin was half-maximal at 1.5 nM (IC50).

With `CNCCN(C)C(=O)O[C@@H](Cc1ccccc1)C(=O)N[C@@H](CC(C)C)C(=O)N[C@@H](CC1CCCCC1)[C@@H](O)[C@@H](O)CC(C)C` [Example 11], in the experiment on plasma renin, the “% Reduction of Plasma Renin Activity” value was found to be 100%. Besides, at human renin, the IC50 came out at 7.7 nM.

On to `CC(C)C[C@H](NC(=O)[C@H](Cc1ccccc1)OC(=O)N(C)CCN(C)C)C(=O)N[C@@H](CC1CCCCC1)[C@@H](O)[C@@H](O)CC(C)C` [Example 15], for which, in the experiment with plasma renin, the “% Reduction of Plasma Renin Activity” value is 79%. The compound further registered an IC50 at human renin of 5.4 nM.

For `CC(C)C[C@H](O)[C@H](O)[C@H](CC1CCCCC1)NC(=O)[C@H](C)CNC(=O)[C@H](Cc1ccccc1)OC(=O)N(C)CCN(C)C` [Example 18], the IC50 against human renin came to 170 nM.

In turn, `CC(C)C[C@H](O)[C@H](O)[C@H](CC1CCCCC1)NC(=O)[C@H](C)CNC(=O)[C@@H](CC(=O)N(C)CCN(C)C)Cc1ccccc1` [Example 19] came in with a concentration for half-maximal inhibition (IC50) against human renin of 48 nM.

With `CC(C)C[C@H](NC(=O)[C@H](Cc1ccccc1)OC(=O)N(CCN(C)C)C(C)C)C(=O)N[C@@H](CC1CCCCC1)[C@@H](O)[C@@H](O)CC(C)C` [Example 20], the half-inhibitory concentration (IC50) against human renin came to 19 nM.

At human renin, `CC(C)C[C@H](O)[C@H](O)[C@H](CC1CCCCC1)NC(=O)[C@H](C)CNC(=O)[C@H](CCc1ccccc1)CC(=O)N(C)CCCCN(C)C(=O)OC(C)(C)C` [Example 21] displayed an IC50 of 1350 nM.

As for `CNCCCCN(C)C(=O)C[C@@H](CCc1ccccc1)C(=O)NC[C@@H](C)C(=O)N[C@@H](CC1CCCCC1)[C@@H](O)[C@@H](O)CC(C)C` [Example 22, 3-{N-[4-(N-methylamino)butyl]-N-methyl-aminocarbonyl}-2-R-phenethyl-propionyl-α-(R)-methyl-β-alanineamide of (2S,3R,4S)-2-amino-1-cyclohexyl-3,4-dihydroxy-6-methylheptane], the IC50 against human renin came to 67 nM.

The compound `CC(C)C[C@H](O)[C@H](O)[C@H](CC1CCCCC1)NC(=O)[C@H](Cc1c[nH]cn1)NC(=O)[C@H](Cc1ccccc1)OC(=O)N(C)CCN(C)C(=O)OC(C)(C)C` [Example 23] registered an IC50 against human renin of 0.45 nM.

Turning to `CC(C)C[C@H](O)[C@H](O)[C@H](CC1CCCCC1)NC(=O)[C@H](C)CNC(=O)[C@H](CCc1ccccc1)OC(=O)N(C)CCN(C)C` [Example 24], the half-inhibitory concentration (IC50) on human renin was 230 nM.

Compound `CC(C)C[C@H](O)[C@H](O)[C@H](CC1CCCCC1)NC(=O)[C@H](C)CNC(=O)[C@H](CCc1ccccc1)CC(=O)N(C)CCN(C)C(=O)OC(C)(C)C` [Example 25] showed an IC50 against human renin of 10 nM.

With `CC(C)C[C@H](O)[C@H](O)[C@H](CC1CCCCC1)NC(=O)[C@H](C)CNC(=O)[C@H](Cc1ccccc1)OC(=O)N(C)CCN(C)C(=O)OC(C)(C)C` [Example 26], on human renin, the IC50 is 8.3 nM.

At human renin, `CNCCN(C)C(=O)O[C@@H](Cc1ccccc1)C(=O)NC[C@@H](C)C(=O)N[C@@H](CC1CCCCC1)[C@@H](O)[C@@H](O)CC(C)C` [Example 27] returned an IC50 of 100 nM.

For `CNCCN(C)C(=O)C[C@@H](CCc1ccccc1)C(=O)NC[C@@H](C)C(=O)N[C@@H](CC1CCCCC1)[C@@H](O)[C@@H](O)CC(C)C` [Example 28, trifluoroacetate salt], the IC50 on human renin worked out at 96 nM.

With `CC(C)CC(=O)N[C@H](C(=O)N[C@H](C(=O)N[C@@H](CC(C)C)[C@@H](O)CC(=O)N[C@@H](C)C(=O)N[C@@H](CC(C)C)[C@@H](O)CC(=O)O)C(C)C)C(C)C` [pepstatin] (Isovaleryl-VV[Sta]A[Sta]-OH), in the experiment with hog renin, the “blood pressure in vivo” value is listed as “reduce blood pressure in vivo”. The “inhibition of aspartyl proteases” value in experiment [1] is “inhibitor of aspartyl proteases such as pepsin, cathepsin D and renin”.
